# Experimental data reported in PubChem BioAssay (NCI).
#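 Compound exposure: 48 hours, 5 concentrations, 96-well plates. TGI: total growth inhibition.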
# Key:
# Experiment in all cases: growth of human tumour cells (NCI), 48 h
# UACC-62 melanoma = tested on: UACC-62 melanoma
# HCT-15 colon = tested on: HCT-15 colon
# SK-MEL-5 melanoma = tested on: SK-MEL-5 melanoma
# OVCAR-5 ovarian = tested on: OVCAR-5 ovarian
# OVCAR-4 ovarian = tested on: OVCAR-4 ovarian
# SNB-75 CNS = tested on: SNB-75 CNS
# SF-268 CNS = tested on: SF-268 CNS
# MDA-N = tested on: MDA-N
# NCI-H23 lung = tested on: NCI-H23 lung
# BT-549 breast = tested on: BT-549 breast
# HCT-116 colon = tested on: HCT-116 colon
# MDA-MB-435 = tested on: MDA-MB-435
# MOLT-4 leukemia = tested on: MOLT-4 leukemia
# HCC-2998 colon = tested on: HCC-2998 colon
# UO-31 renal = tested on: UO-31 renal
# SF-539 CNS = tested on: SF-539 CNS
# RPMI-8226 leukemia = tested on: RPMI-8226 leukemia
# HT29 colon = tested on: HT29 colon
# A549 NSCLC = tested on: A549 NSCLC
# T-47D breast = tested on: T-47D breast
# MALME-3M melanoma = tested on: MALME-3M melanoma
# NCI-H522 lung = tested on: NCI-H522 lung
# HL-60(TB) leukemia = tested on: HL-60(TB) leukemia
# SNB-19 CNS = tested on: SNB-19 CNS
# IGROV1 ovarian = tested on: IGROV1 ovarian
# SW-620 colon = tested on: SW-620 colon
# DU-145 prostate = tested on: DU-145 prostate
# CCRF-CEM leukemia = tested on: CCRF-CEM leukemia
# 786-0 renal = tested on: 786-0 renal
# SK-OV-3 ovarian = tested on: SK-OV-3 ovarian
# OVCAR-3 ovarian = tested on: OVCAR-3 ovarian
# UACC-257 melanoma = tested on: UACC-257 melanoma
# MDA-MB-231 breast = tested on: MDA-MB-231 breast
# MCF7 breast = tested on: MCF7 breast
# NCI/ADR-RES ovarian = tested on: NCI/ADR-RES ovarian
# EKVX NSCLC = tested on: EKVX NSCLC
# PC-3 prostate = tested on: PC-3 prostate
# NCI-H226 lung = tested on: NCI-H226 lung
# KM12 colon = tested on: KM12 colon
# SK-MEL-28 melanoma = tested on: SK-MEL-28 melanoma
# SK-MEL-2 melanoma = tested on: SK-MEL-2 melanoma
# RXF 393 renal = tested on: RXF 393 renal
# OVCAR-8 ovarian = tested on: OVCAR-8 ovarian
# A498 renal = tested on: A498 renal
# U251 CNS = tested on: U251 CNS
# LOX IMVI melanoma = tested on: LOX IMVI melanoma
# HOP-92 NSCLC = tested on: HOP-92 NSCLC
# SN12C renal = tested on: SN12C renal
# ACHN renal = tested on: ACHN renal
# M14 melanoma = tested on: M14 melanoma
# HS 578T breast = tested on: HS 578T breast
# COLO 205 colon = tested on: COLO 205 colon
# TK-10 renal = tested on: TK-10 renal
# SF-295 CNS = tested on: SF-295 CNS
# NCI-H460 lung = tested on: NCI-H460 lung
# HOP-62 NSCLC = tested on: HOP-62 NSCLC
# CAKI-1 renal = tested on: CAKI-1 renal
# K-562 leukemia = tested on: K-562 leukemia
# SR leukemia = tested on: SR leukemia
smiles,measurement,setting,value
O=C(O)C1C(C(=O)O)C2C(=O)C=CC1N2Cc1ccccc1 (stereo not given),TGI,UACC-62 melanoma,21.3 µM
same,TGI,HCT-15 colon,10.3 µM
same,TGI,SK-MEL-5 melanoma,17.2 µM
same,TGI,OVCAR-5 ovarian,20.5 µM
same,TGI,OVCAR-4 ovarian,16.3 µM
same,TGI,SNB-75 CNS,6.97 µM
same,TGI,SF-268 CNS,11.3 µM
same,TGI,MDA-N,11.4 µM
same,TGI,NCI-H23 lung,7.71 µM
same,TGI,BT-549 breast,17.4 µM
same,TGI,HCT-116 colon,15.2 µM
same,TGI,MDA-MB-435,13.4 µM
same,TGI,MOLT-4 leukemia,9.18 µM
same,TGI,HCC-2998 colon,7.71 µM
same,TGI,UO-31 renal,3.72 µM
same,TGI,SF-539 CNS,7.56 µM
same,TGI,RPMI-8226 leukemia,13.6 µM
same,TGI,HT29 colon,12.6 µM
same,TGI,A549 NSCLC,22.4 µM
same,TGI,T-47D breast,15.2 µM
same,TGI,MALME-3M melanoma,8.73 µM
same,TGI,NCI-H522 lung,3.78 µM
same,TGI,HL-60(TB) leukemia,4.31 µM
same,TGI,SNB-19 CNS,18.2 µM
same,TGI,IGROV1 ovarian,27.1 µM
same,TGI,SW-620 colon,11.6 µM
same,TGI,DU-145 prostate,6.17 µM
same,TGI,CCRF-CEM leukemia,2.75 µM
same,TGI,786-0 renal,11.7 µM
same,TGI,SK-OV-3 ovarian,17 µM
same,TGI,OVCAR-3 ovarian,10.1 µM
same,TGI,UACC-257 melanoma,11.6 µM
same,TGI,MDA-MB-231 breast,14.4 µM
same,TGI,MCF7 breast,25.7 µM
same,TGI,NCI/ADR-RES ovarian,7.58 µM
same,TGI,EKVX NSCLC,16.3 µM
same,TGI,PC-3 prostate,18.8 µM
same,TGI,NCI-H226 lung,35.8 µM
same,TGI,KM12 colon,12.7 µM
same,TGI,SK-MEL-28 melanoma,15.5 µM
same,TGI,SK-MEL-2 melanoma,24.1 µM
same,TGI,RXF 393 renal,7.51 µM
same,TGI,OVCAR-8 ovarian,> 100 µM
same,TGI,A498 renal,42.6 µM
same,TGI,U251 CNS,14.2 µM
same,TGI,LOX IMVI melanoma,19.1 µM
same,TGI,HOP-92 NSCLC,24.6 µM
same,TGI,SN12C renal,5.47 µM
same,TGI,ACHN renal,14.2 µM
same,TGI,M14 melanoma,5.99 µM
same,TGI,HS 578T breast,6.1 µM
same,TGI,COLO 205 colon,22.1 µM
same,TGI,TK-10 renal,11.4 µM
same,TGI,SF-295 CNS,23.4 µM
same,TGI,NCI-H460 lung,5.1 µM
same,TGI,HOP-62 NSCLC,10.5 µM
same,TGI,CAKI-1 renal,14.5 µM
same,TGI,K-562 leukemia,> 100 µM
Oc1ccccc1/C=N/Nc1nnc2c3ccccc3c3ccccc3c2n1,TGI,UACC-62 melanoma,> 100 µM
same,TGI,SR leukemia,> 100 µM
same,TGI,HCT-15 colon,> 100 µM
same,TGI,SK-MEL-5 melanoma,> 100 µM
same,TGI,OVCAR-5 ovarian,> 100 µM
same,TGI,OVCAR-4 ovarian,> 100 µM
same,TGI,SNB-75 CNS,84.4 µM
same,TGI,SF-268 CNS,> 100 µM
same,TGI,MDA-N,> 100 µM
same,TGI,NCI-H23 lung,> 100 µM
same,TGI,BT-549 breast,> 100 µM
same,TGI,HCT-116 colon,> 100 µM
same,TGI,MDA-MB-435,> 100 µM
same,TGI,MOLT-4 leukemia,> 100 µM
same,TGI,UO-31 renal,> 100 µM
same,TGI,SF-539 CNS,> 100 µM
same,TGI,RPMI-8226 leukemia,> 100 µM
same,TGI,HT29 colon,> 100 µM
same,TGI,A549 NSCLC,> 100 µM
same,TGI,T-47D breast,> 100 µM
same,TGI,MALME-3M melanoma,> 100 µM
same,TGI,NCI-H522 lung,54.1 µM
same,TGI,HL-60(TB) leukemia,> 100 µM
same,TGI,SNB-19 CNS,> 100 µM
same,TGI,IGROV1 ovarian,> 100 µM
same,TGI,SW-620 colon,> 100 µM
same,TGI,DU-145 prostate,> 100 µM
same,TGI,CCRF-CEM leukemia,> 100 µM
same,TGI,786-0 renal,> 100 µM
same,TGI,SK-OV-3 ovarian,> 100 µM
same,TGI,OVCAR-3 ovarian,44.2 µM
same,TGI,UACC-257 melanoma,64.7 µM
same,TGI,MDA-MB-231 breast,> 100 µM
same,TGI,MCF7 breast,> 100 µM
same,TGI,NCI/ADR-RES ovarian,> 100 µM
same,TGI,EKVX NSCLC,> 100 µM
same,TGI,PC-3 prostate,> 100 µM
same,TGI,NCI-H226 lung,> 100 µM
same,TGI,KM12 colon,> 100 µM
same,TGI,SK-MEL-28 melanoma,> 100 µM
same,TGI,SK-MEL-2 melanoma,> 100 µM
same,TGI,RXF 393 renal,> 100 µM
same,TGI,OVCAR-8 ovarian,> 100 µM
same,TGI,A498 renal,> 100 µM
same,TGI,U251 CNS,> 100 µM
same,TGI,LOX IMVI melanoma,> 100 µM
same,TGI,HOP-92 NSCLC,> 100 µM
same,TGI,SN12C renal,> 100 µM
same,TGI,ACHN renal,> 100 µM
same,TGI,M14 melanoma,> 100 µM
same,TGI,HS 578T breast,> 100 µM
same,TGI,COLO 205 colon,> 100 µM
same,TGI,TK-10 renal,> 100 µM
same,TGI,SF-295 CNS,> 100 µM
same,TGI,NCI-H460 lung,> 100 µM
same,TGI,HOP-62 NSCLC,> 100 µM
same,TGI,CAKI-1 renal,> 100 µM
same,TGI,K-562 leukemia,> 100 µM
O=c1n(/N=C/c2ccccc2)c(=O)n2n1C1C=CC2CC1,TGI,UACC-62 melanoma,> 100 µM
same,TGI,SR leukemia,> 100 µM
same,TGI,HCT-15 colon,> 100 µM
same,TGI,SK-MEL-5 melanoma,> 100 µM
same,TGI,OVCAR-5 ovarian,> 100 µM
same,TGI,SNB-75 CNS,> 100 µM
same,TGI,SF-268 CNS,> 100 µM
same,TGI,MDA-N,> 100 µM
same,TGI,NCI-H23 lung,> 100 µM
same,TGI,BT-549 breast,> 100 µM
same,TGI,HCT-116 colon,> 100 µM
same,TGI,MDA-MB-435,> 100 µM
same,TGI,MOLT-4 leukemia,> 100 µM
same,TGI,UO-31 renal,> 100 µM
same,TGI,SF-539 CNS,> 100 µM
same,TGI,RPMI-8226 leukemia,> 100 µM
same,TGI,HT29 colon,> 100 µM
same,TGI,A549 NSCLC,> 100 µM
same,TGI,T-47D breast,> 100 µM
same,TGI,HL-60(TB) leukemia,> 100 µM
same,TGI,SNB-19 CNS,> 100 µM
same,TGI,IGROV1 ovarian,> 100 µM
same,TGI,SW-620 colon,> 100 µM
same,TGI,DU-145 prostate,> 100 µM
same,TGI,CCRF-CEM leukemia,> 100 µM
same,TGI,786-0 renal,> 100 µM
same,TGI,SK-OV-3 ovarian,> 100 µM
same,TGI,OVCAR-3 ovarian,> 100 µM
same,TGI,UACC-257 melanoma,> 100 µM
same,TGI,MDA-MB-231 breast,> 100 µM
same,TGI,MCF7 breast,> 100 µM
same,TGI,NCI/ADR-RES ovarian,> 100 µM
same,TGI,EKVX NSCLC,> 100 µM
same,TGI,PC-3 prostate,> 100 µM
same,TGI,NCI-H226 lung,> 100 µM
same,TGI,KM12 colon,> 100 µM
same,TGI,SK-MEL-28 melanoma,> 100 µM
same,TGI,SK-MEL-2 melanoma,> 100 µM
same,TGI,OVCAR-8 ovarian,> 100 µM
same,TGI,A498 renal,> 100 µM
same,TGI,U251 CNS,> 100 µM
same,TGI,LOX IMVI melanoma,> 100 µM
same,TGI,HOP-92 NSCLC,> 100 µM
same,TGI,SN12C renal,> 100 µM
same,TGI,ACHN renal,> 100 µM
same,TGI,M14 melanoma,> 100 µM
same,TGI,HS 578T breast,> 100 µM
same,TGI,COLO 205 colon,> 100 µM
same,TGI,TK-10 renal,> 100 µM
same,TGI,SF-295 CNS,> 100 µM
same,TGI,NCI-H460 lung,> 100 µM
same,TGI,HOP-62 NSCLC,> 100 µM
same,TGI,CAKI-1 renal,> 100 µM
same,TGI,K-562 leukemia,> 100 µM
